Measured values from patent publication US7351690B2, “Knockout identification of target-specific sites in peptides” (priority 2000, dated 2008).
Square brackets hold non-standard residues; d marks the D form. Ends that are not written are not given here. pGlu = O=C1CC[C@@H](C(=O)O)N1; Nle = CCCC[C@H](N)C(=O)O

These substances were tested on bombesin receptor (assay: competitive binding assay, 125I-Bombesin, rat brain membranes). Details: not given.
Procedure: Rat brain membranes were utilized as the source of bombesin receptor. The competitive binding assay was performed using a procedure as described by Moody T W, Perk C B, Rivier J, Brown, M R. (Proc Natl Acad Sci USA. 75:5372-5376, […]) and adapted to a 96 well format. An aliquot of membranes taken in assay buffer (50 mM Tris and HCl, pH 7.4 containing 1 mg/mL BSA and 2 μg/mL bacitracin) was incubated with 0.01 nM of ^125I-Bombesin with or without varying concentrations of the test compound for 60 min at 4° C. The incubation was terminated by rapid filtration of the assay mixture, followed by washing the filters with ice-cold buffer. The filters were dried and counted in a gamma counter for retained radioactivity. Non-specific binding was measured by including 1 μM Bombesin in the assay tube. The assay was performed in triplicate and results calculated to determine percentage inhibition of the ^125I-Bombesin binding to its receptors by a test compound. The parent polypeptide is shown in Table 6, with metallopeptides having Cys inserted as shown.

Row | Substance | binding to bombesin receptor, in words
1 | D-Phe-Gln-Trp-Ala-Val-Cys-NH2 ([dF]QWAVC-NH2; also: oxorhenium(V) N3S1 chelate via Cys (Re(V)=O)) [11-3] | high negative percent inhibition
2 | D-Phe-Gln-Trp-Cys-Ala-Val-Gly-His-Leu-Leu-NH2 ([dF]QWCAVGHLL-NH2; also: rhenium complex (oxorhenium(V) N3S1 chelate via Cys)) [8-7] | least activity
3 | Gln-Trp-Ala-Val-Cys-NH2 (QWAVC-NH2; not fully specified (bridges); printed as Gln-Trp-Ala-Val-Cys-NH2; also: oxorhenium(V) N3S1 chelate (Re(V)=O)) [11-13] | high negative percent inhibition
4 | Pyr-Gln-Arg-Leu-Gly-Asn-Gln-Cys-Ala-Val-Gly-His-Leu-Nle-NH2 (QRLGNQCAVGHL; N-term pyroglutamate; Nle-NH2; rhenium complex; printed: Gln-Arg-Leu-Gly-Asn-Gln-Cys-Ala-Val-Gly-His-Leu-) [7-7] | Complete inactivity

Same assay, conditions: inhibition of 0.01 nM 125I-Bombesin binding; rat brain membranes; test concentration not given

Row | Substance | % Inhibition [%]
5 | D-Phe-Gln-Trp-Ala-Val-Cys-NH2 ([dF]QWAVC-NH2; also: oxorhenium(V) N3S1 chelate via Cys (Re(V)=O)) [11-3] | −81
6 | D-Phe-Gln-Trp-Ala-Val-D-Cys-His-Leu-Leu-NH2 (chain 1 [dF]QWAV; chain 2 [dC]HLL-NH2; not fully specified (bridges); also: chain 2 continues chain 1 in one peptide (Val-D-Cys bond), Re-peptide (rhenium complex)) [10-2] | 64
7 | D-Phe-Gln-Trp-Ala-Val-Gly-Cys-His-Leu-Leu-NH2 ([dF]QWAVGCHLL-NH2; also: oxorhenium(V) N3S1 chelate via Cys (Re(V)=O)) [8-4] | 59
8 | D-Phe-Gln-Trp-Ala-Val-Gly-Cys-Leu-Leu-NH2 ([dF]QWAVGCLL-NH2; also: oxorhenium(V) N3S1 chelate via Cys (Re(V)=O)) [9-3] | 70
9 | D-Phe-Gln-Trp-Ala-Val-Gly-His-Cys-Leu-Leu-NH2 ([dF]QWAVGHCLL-NH2; also: rhenium complex (oxorhenium(V) N3S1 chelate via Cys)) [8-3] | 49
10 | D-Phe-Gln-Trp-Ala-Val-Gly-His-Cys-Leu-NH2 ([dF]QWAVGHCL-NH2; also: rhenium complex (oxorhenium(V) N3S1 chelate via Cys)) [9-2] | 35
11 | D-Phe-Gln-Trp-Ala-Val-Gly-His-Leu-Cys-Leu-NH2 ([dF]QWAVGHLCL-NH2; also: rhenium complex (oxorhenium(V) N3S1 chelate via Cys)) [8-2] | 75
12 | D-Phe-Gln-Trp-Ala-Val-Gly-His-Leu-Cys-NH2 ([dF]QWAVGHLC-NH2; also: rhenium complex (oxorhenium(V) N3S1 chelate via Cys)) [9-1] | 86
13 | D-Phe-Gln-Trp-Ala-Val-Gly-His-Leu-Leu-Cys-NH2 ([dF]QWAVGHLLC-NH2; also: rhenium complex (oxorhenium(V) N3S1 chelate via Cys)) [8-1] | 39
14 | D-Phe-Gln-Trp-Cys-Ala-Val-Gly-His-Leu-Leu-NH2 ([dF]QWCAVGHLL-NH2; also: rhenium complex (oxorhenium(V) N3S1 chelate via Cys)) [8-7] | 8
15 | D-Phe-Gln-Trp-Cys-Val-Gly-His-Leu-Leu-NH2 ([dF]QWCVGHLL-NH2; also: oxorhenium(V) N3S1 chelate complex (Re=O)) [9-6] | 43
16 | D-Phe-Gln-Trp-Cys-Val-His-Leu-Leu-NH2 ([dF]QWCVHLL-NH2; not fully specified (bridges); printed as D-Phe-Gln-Trp-Cys-Val-His-Leu-Leu-NH2; also: oxorhenium(V) N3S1 chelate complex (Re=O)) [12-6] | 10
17 | D-Phe-Gln-Trp-D-Ala-Val-Cys-His-Leu-Leu-NH2 ([dF]QW[dA]VCHLL-NH2; numbers in words are those of the source; also: oxorhenium(V) N3S1 chelate complex (Re=O)) [10-4] | 2
18 | D-Phe-Gln-Trp-Val-Cys-Gly-His-Leu-Leu-NH2 ([dF]QWVCGHLL-NH2; also: oxorhenium(V) N3S1 chelate complex (Re=O)) [12-1] | 2
19 | D-Phe-Gln-Trp-Val-Cys-His-Leu-Leu-NH2 ([dF]QWVCHLL-NH2; also: oxorhenium(V) N3S1 chelate complex (Re=O)) [12-4] | 5
20 | D-Phe-Gln-Trp-Val-Cys-Val-His-Leu-Leu-NH2 ([dF]QWVCVHLL-NH2; not fully specified (bridges); printed as D-Phe-Gln-Trp-Val-Cys-Val-His-Leu-Leu-NH2; also: oxorhenium(V) N3S1 chelate complex (Re=O)) [12-3] | 14
21 | Gln-Trp-Ala-Val-Cys-His-Leu-Leu-NH2 [11-4] (QWAVCHLL-NH2; not fully specified (bridges); printed as Gln-Trp-Ala-Val-Cys-His-Leu-Leu-NH2; also: oxorhenium(V) N3S1 chelate (Re(V)=O)) | 25

Row | Substance | % Inhibition [%]
22 | Gln-Trp-Ala-Val-Cys-His-Leu-Leu-NH2 [11-7] (QWAVCHLL-NH2; not fully specified (bridges); printed as Gln-Trp-Ala-Val-Cys-His-Leu-Leu-NH2; also: oxorhenium(V) N3S1 chelate (Re(V)=O)) | 5
23 | Gln-Trp-Ala-Val-Cys-NH2 (QWAVC-NH2; not fully specified (bridges); printed as Gln-Trp-Ala-Val-Cys-NH2; also: oxorhenium(V) N3S1 chelate (Re(V)=O)) [11-13] | −50
24 | Pyr-Gln-Arg-Cys-Gly-Asn-Gln-Trp-Ala-Val-Gly-His-Leu-Nle-NH2 (QRCGNQWAVGHL; N-term pyroglutamate; Nle-NH2; rhenium complex; printed: Gln-Arg-Cys-Gly-Asn-Gln-Trp-Ala-Val-Gly-His-Leu-) [7-11] | 95
25 | Pyr-Gln-Arg-Cys-Leu-Gly-Asn-Gln-Trp-Ala-Val-Gly-His-Leu-Nle-NH2 ([pGlu]QRCLGNQWAVGHL[Nle]-NH2; numbers in words are those of the source; also: oxorhenium(V) N3S1 chelate (Re(V)=O)) [6-12] | 97
26 | Pyr-Gln-Arg-Leu-Gly-Asn-Cys-Gln-Trp-Ala-Val-Gly-His-Leu-Nle-NH2 ([pGlu]QRLGNCQWAVGHL[Nle]-NH2; numbers in words are those of the source; also: oxorhenium(V) N3S1 chelate (Re(V)=O)) [6-9] | 91
27 | Pyr-Gln-Arg-Leu-Gly-Asn-Cys-Trp-Ala-Val-Gly-His-Leu-Nle-NH2 (QRLGNCWAVGHL; N-term pyroglutamate; Nle-NH2; rhenium complex; printed: Gln-Arg-Leu-Gly-Asn-Cys-Trp-Ala-Val-Gly-His-Leu-) [7-8] | 84
28 | Pyr-Gln-Arg-Leu-Gly-Asn-Gln-Cys-Ala-Val-Gly-His-Leu-Nle-NH2 (QRLGNQCAVGHL; N-term pyroglutamate; Nle-NH2; rhenium complex; printed: Gln-Arg-Leu-Gly-Asn-Gln-Cys-Ala-Val-Gly-His-Leu-) [7-7] | −2
29 | Pyr-Gln-Arg-Leu-Gly-Asn-Gln-Cys-Trp-Ala-Val-Gly-His-Leu-Nle-NH2 ([pGlu]QRLGNQCWAVGHL[Nle]-NH2; numbers in words are those of the source; also: oxorhenium(V) N3S1 chelate (Re(V)=O)) [6-8] | 75
30 | Pyr-Gln-Arg-Leu-Gly-Asn-Gln-Trp-Ala-Cys-Gly-His-Leu-Nle-NH2 (QRLGNQWACGHL; N-terminal pyroglutamate; C-terminal Nle-amide; printed: Gln-Arg-Leu-Gly-Asn-Gln-Trp-Ala-Cys-Gly-His-Leu-) [7-5] | 61
31 | Pyr-Gln-Arg-Leu-Gly-Asn-Gln-Trp-Ala-Cys-Val-Gly-His-Leu-Nle-NH2 ([pGlu]QRLGNQWACVGHL[Nle]-NH2; numbers in words are those of the source; also: oxorhenium(V) N3S1 chelate (Re=O) with Cys) [6-6] | 83
32 | Pyr-Gln-Arg-Leu-Gly-Asn-Gln-Trp-Ala-Val-Cys-Gly-His-Leu-Nle-NH2 ([pGlu]QRLGNQWAVCGHL[Nle]-NH2; numbers in words are those of the source; also: oxorhenium(V) N3S1 chelate (Re=O) with Cys) [6-5] | 67
33 | Pyr-Gln-Arg-Leu-Gly-Asn-Gln-Trp-Ala-Val-Cys-His-Leu-Nle-NH2 (QRLGNQWAVCHL; N-terminal pyroglutamate; C-terminal Nle-amide; printed: Gln-Arg-Leu-Gly-Asn-Gln-Trp-Ala-Val-Cys-His-Leu-) [7-4] | 81
34 | Pyr-Gln-Arg-Leu-Gly-Asn-Gln-Trp-Ala-Val-Gly-Cys-His-Leu-Nle-NH2 ([pGlu]QRLGNQWAVGCHL[Nle]-NH2; numbers in words are those of the source; also: oxorhenium(V) N3S1 chelate (Re=O) with Cys) [6-4] | 70
35 | Pyr-Gln-Arg-Leu-Gly-Asn-Gln-Trp-Ala-Val-Gly-Cys-Leu-Nle-NH2 (QRLGNQWAVGCL; N-terminal pyroglutamate; C-terminal Nle-amide; printed: Gln-Arg-Leu-Gly-Asn-Gln-Trp-Ala-Val-Gly-Cys-Leu-) [7-3] | 82
36 | Pyr-Gln-Arg-Leu-Gly-Asn-Gln-Trp-Ala-Val-Gly-His-Cys-Leu-Nle-NH2 ([pGlu]QRLGNQWAVGHCL[Nle]-NH2; numbers in words are those of the source; also: rhenium complex (oxorhenium(V) N3S1 chelate via Cys)) [6-3] | 71
37 | Pyr-Gln-Arg-Leu-Gly-Asn-Gln-Trp-Ala-Val-Gly-His-Cys-Nle-NH2 (QRLGNQWAVGHC; N-term pyroglutamate; Nle-NH2; rhenium complex; printed: Gln-Arg-Leu-Gly-Asn-Gln-Trp-Ala-Val-Gly-His-Cys-) [7-2] | 66
